“And” between values parts separate entries of the source, which are not always exact repeats. Equal entries are not always repeated.
What was measured:
C. hominis TU502 isolate = test: Calibr high-content imaging Cryptosporidium panel; format: cell-based, Cryptosporidium hominis
[1] = system: C. parvum U AZ Laboratory isolate; test: microbe, parasite or virus in culture; format: cell-based, Cryptosporidium parvum
[2] = system: C. parvum Bunch Grass Farms isolate; test: Calibr high-content imaging Cryptosporidium panel; format: cell-based, Cryptosporidium parvum; details: Calibr Crypto Panel 2
[3] = system: C. parvum Zambriski Laboratory isolate; test: Calibr high-content imaging Cryptosporidium panel; format: cell-based, Cryptosporidium parvum; details: Calibr Crypto Panel 2
HEK293T = test: 72H HEK293T Cytotoxicity; format: cell-based
HCT-8 cells = test: HCT-8 host cell count (Calibr); details: read-out: HCT-8 Cell Count CC50; host cells infected with Sterling oocysts
[4] = system: micronuclei in interphase cells; test: In vitro micronucleus (IVMN) test
[5] = female, Balb/c, mouse, in vivo
[6] = system: NLuc-expressing C. parvum; design: method as in PMID 30830766; details: 8 mg/kg QD x 5 PO, 20 days p.i.; cited from earlier work
5-HT2B = molecular target: T1, 5-HT2B (Homo sapiens, UniProt P41595); test: Cerep binding assay; details: agonist radioligand, mean, read-out: % inhibition of control specific binding
T1 construct: Cerep (Eurofins, France)
T1 sequence (P41595 whole entry): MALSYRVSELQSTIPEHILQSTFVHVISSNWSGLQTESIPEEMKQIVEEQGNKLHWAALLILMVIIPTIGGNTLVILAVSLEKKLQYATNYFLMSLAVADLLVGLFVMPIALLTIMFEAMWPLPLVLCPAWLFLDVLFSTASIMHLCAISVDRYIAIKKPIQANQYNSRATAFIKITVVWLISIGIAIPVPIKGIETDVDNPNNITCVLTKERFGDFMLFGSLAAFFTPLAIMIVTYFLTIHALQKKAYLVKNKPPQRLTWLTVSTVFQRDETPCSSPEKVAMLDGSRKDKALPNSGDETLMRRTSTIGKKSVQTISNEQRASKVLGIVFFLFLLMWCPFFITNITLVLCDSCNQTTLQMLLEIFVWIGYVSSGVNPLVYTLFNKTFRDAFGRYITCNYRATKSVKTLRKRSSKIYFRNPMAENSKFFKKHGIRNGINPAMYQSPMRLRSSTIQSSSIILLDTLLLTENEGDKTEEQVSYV

[7] = dog, in vivo
[8] = system: NLuc-expressing C. parvum; test: NLuc C. parvum IFNγ-KO mouse infection model, oocyst shedding; format: in vivo
NLuc C. parvum = system: NLuc C. parvum; design: method as in PMID 30830766; details: cited from earlier work
[9] = cited from earlier work
C. parvum = details: bovine, in vivo

## CCOc1ccc2cc(-c3nn(CC4CCN(C)CC4)c4ncnc(N)c34)ccc2c1 [BKI-1294]
C. hominis TU502 isolate; Calibr Crypto Panel 2, 2018-07-02, read-out: C. hominis Spot Count EC50
  EC50: 2.82 µM
C. hominis TU502 isolate; Calibr Crypto Panel 2, read-out: C. hominis Spot Count EC90
  EC90: 14.8 µM
[1]; Calibr Crypto Panel 2, 2018-06-18, read-out: Sterling Lab C. parvum Spot Count EC50
  EC50: 0.468 µM
[1]; Calibr Crypto Panel 2, read-out: Sterling Lab C. parvum Spot Count EC90
  EC90: 8.29 µM
[2]; read-out: Bunch Grass Farm C. parvum Spot Count EC50
  EC50: 2.02 µM
[2]; read-out: Bunch Grass Farm C. parvum Spot Count EC90
  EC90: 5.44 µM
[3]; read-out: Wild C. parvum Spot Count EC50
  EC50: 0.337 µM
[3]; read-out: Wild C. parvum Spot Count EC90
  EC90: 27.3 µM
HEK293T
  CC50: 22.2 µM
HCT-8 cells
  CC50: > 25 µM

## CC(C)(CO)Cn1nc(-c2ccc3cc(OC4CC4)ccc3c2)c(C(N)=O)c1N [BKI-1708]
[4]
  IVMN test result: no change in the frequency of micronucleated cells
[5]
  postnatal mortality (%): 0%
[6]
  log reduction in oocyst shedding over untreated controls: > 3 log
5-HT2B
  inhibition at 10 µM: 24.3%
[7]
  plasma level without appreciable effect on MAP, HR, contractility, SVR, CO, QT, QRS, PR: 95 µM
[8]; 8 mg/kg QD x 3
  efficacy: failed to recapitulate efficacy
[8]; 15 mg/kg x 2 days, day 20 p.i.
  log reduction in oocyst shedding: 2.1 log
[8]; 60, 30 and 15 mg/kg QD x 3, up to 20 days p.i.
  log reduction vs peak infection levels of untreated control: > 4 log
[8]; BKI-1708 15 mg/kg QD x 3 PO
  day p.i. oocyst shedding reached LoD: ≤ 13 days
[8]; BKI-1708 30 mg/kg QD x 3 PO
  day p.i. oocyst shedding reached LoD: ≤ 13 days
[8]; BKI-1708 60 mg/kg QD x 3 PO
  day p.i. oocyst shedding below LoD: ≤ 10 days
[8]; single 15 mg/kg dose, 13 days p.i.
  log reduction in oocyst shedding: 1.4 log
[8]; single 15 mg/kg dose, 20 days p.i.
  log reduction in oocyst shedding: 1.7 log
[8]; single 60 mg/kg dose, 13 days p.i.
  log reduction in oocyst shedding: 3.5 log
NLuc C. parvum
  EC50: 0.4 µM
[9]
  maximum tolerated single dose: 400 mg/kg
C. parvum
  Clinical scores: 10.5
  Weights, %∆: 6.329% and 8.511% and 5.263%
  Weights, %∆, mean: 6.701%

From PMC12310023 (PLOS Neglected Tropical Diseases, 2025)
